Earlier results, collected in patent US20090148399A1, “Controlled release attractant for gravid female mosquitoes” (priority 2007, published 2009).

Tested on: gravid female C. quinquefasciatus
Conditions: gravid female Culex quinquefasciatus

Row | Compound | oviposition attractancy
1 | CCCCCCCCCC[C@H](OC(C)=O)[C@H]1CCCC(=O)O1 [(5R,6S)-6-acetetoxy-5-hexadecanolide] | attracts other females of the same species to deposit their eggs gregariously
2 | Cc1c[nH]c2ccccc12 [3-Methyl indole] | highly effective attractant
